Assay results taken from patent US6111132A, “Compounds and methods for synthesis and therapy” (priority 1998, dated 2000).

The compounds below were run against Neuraminidase Flu B (Influenza B virus, UniProt P03474) (assay: biochemical).
Source text: Compositions of the invention are screened for inhibitory activity against neuraminidase by any of the conventional techniques for evaluating enzyme activity. Within the context of the invention, typically compositions are first screened for inhibition of neuraminidase in vitro and compositions showing inhibitory activity are then screened for activity in vivo.
(§1) Useful in vitro screens have been described in detail and will not be elaborated here. However, von Itzstein, M. et al.; "Nature", 363(6428):418-423 (1993), in particular page 420, column 2, full paragraph 3, to page 421, column 2, first partial paragraph, describes a suitable in vitro assay of Potier, M.; et al.; "Analyt. Biochem.", 94:287-296 (1979), as modified by Chong, A. K. J.; et al.; "Biochem. Biophys. Acta", 1077:65-71 (1991); and Colman, P. M.; et al.; International Publication No. WO 92/06691 (Int. App. No. PCT/AU90/00501, publication date Apr. 30, 1992) page 34, line 13, to page 35, line 16, describes another useful in vitro screen.
Enzyme Inhibition: Using the methods of screening in vitro activity described above, the following activities were observed: […]

Chain of Neuraminidase Flu B (P03474 whole entry): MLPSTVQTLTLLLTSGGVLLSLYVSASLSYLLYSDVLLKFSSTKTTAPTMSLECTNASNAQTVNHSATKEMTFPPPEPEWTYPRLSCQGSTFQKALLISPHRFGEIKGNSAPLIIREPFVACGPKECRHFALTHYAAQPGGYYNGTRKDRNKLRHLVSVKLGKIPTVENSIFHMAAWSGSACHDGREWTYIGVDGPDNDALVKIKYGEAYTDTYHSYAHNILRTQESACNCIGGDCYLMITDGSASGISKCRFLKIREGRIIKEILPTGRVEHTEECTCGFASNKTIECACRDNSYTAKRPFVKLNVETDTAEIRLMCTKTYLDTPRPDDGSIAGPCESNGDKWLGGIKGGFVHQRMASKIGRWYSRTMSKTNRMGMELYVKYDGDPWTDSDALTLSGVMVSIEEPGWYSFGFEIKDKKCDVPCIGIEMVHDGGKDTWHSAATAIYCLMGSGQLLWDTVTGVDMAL

SMILES	IC50
CC(=O)N[C@H]1[C@H](N2CCCCC2)C=C(C(=O)O)C[C@@H]1N [Compound 5l]	3 nM

The compounds below were run against Neuraminidase Flu A (assay: Neuraminidase inhibition in vitro, Flu A).
Format: biochemical, influenza virus A
Source text: Compositions of the invention are screened for inhibitory activity against neuraminidase by any of the conventional techniques for evaluating enzyme activity.
as §1

SMILES	IC50
CCCCN(C)[C@@H]1C=C(C(=O)O)C[C@H](N)[C@H]1NC(C)=O [Compound 5b]	180 nM
CCC(CC)N(C)[C@@H]1C=C(C(=O)O)C[C@H](N)[C@H]1NC(C)=O [Compound 5c]	6 nM
CCC(CC)CN(C)[C@@H]1C=C(C(=O)O)C[C@H](N)[C@H]1NC(C)=O [Compound 5d]	120 nM
CC(=O)N[C@H]1[C@H](N(C)CCc2ccccc2)C=C(C(=O)O)C[C@@H]1N [Compound 5e]	100 nM
CC(=O)N[C@H]1[C@H](N(C)C2CCCCC2)C=C(C(=O)O)C[C@@H]1N [Compound 5f]	200 nM
CCCN(CC)[C@@H]1C=C(C(=O)O)C[C@H](N)[C@H]1NC(C)=O [Compound 5g]	90 nM
CCCCN(CC)[C@@H]1C=C(C(=O)O)C[C@H](N)[C@H]1NC(C)=O [Compound 5h]	85 nM
CCCN(CCC)[C@@H]1C=C(C(=O)O)C[C@H](N)[C@H]1NC(C)=O [Compound 5i]	12 nM
CCCN(CC1CC1)[C@@H]1C=C(C(=O)O)C[C@H](N)[C@H]1NC(C)=O [Compound 5j]	50 nM
CC(=O)N[C@H]1[C@H](N2CCCC2)C=C(C(=O)O)C[C@@H]1N [Compound 5k]	400 nM
CC(=O)N[C@H]1[C@H](N2CCCCC2)C=C(C(=O)O)C[C@@H]1N [Compound 5l]	30 nM
CC(=O)N[C@H]1[C@H](N2CCOCC2)C=C(C(=O)O)C[C@@H]1N [Compound 5m]	200 nM
CCC(CC)N[C@@H]1C=C(C(=O)O)C[C@H](N)[C@H]1NC(C)=O [Compound 12a]	11.5 nM
CCCN[C@@H]1C=C(C(=O)O)C[C@H](N)[C@H]1NC(C)=O [Compound 12b]	200 nM
